The source of these data is patent US5559127A, “Fibrinogen receptor antagonists” (Merck & Co., Inc., priority 1995, dated 1996).

The assay relates to human platelets. Kind of assay: ADP-stimulated platelet aggregation assay (inhibition of aggregation of gel-filtered human platelets). The conditions noted are these: fibrinogen 100 μg/ml, Ca2+ 1 mM, 10 uM ADP, 37° C., read-out: IC50 (dose inhibiting aggregation by 50% relative to a control lacking the compound). In kind it is cell-based. Here is the method: The ADP-stimulated platelet aggregation assay was used to determine IC50 inhibition associated with compounds of the invention.
Human platelets were isolated from fresh blood, collected into acid citrate/dextrose by differential centrifugation followed by gel filtration on Sepharose 2B in divalent ion-free Tyrode's buffer (pH 7.4) containing 2% bovine serum albumin. Platelet aggregation was measured at 37° C. in a a Chronolog aggregometer. The reaction mixture contained gel-filtered human platelets (2×10^8 […]), fibrinogen (100 μg/ml), Ca^2+ (1 mM), and the compound to be tested. Aggregation was initiated by adding 10 uM ADP 1 minute after the other components had been added. The reaction was allowed to proceed for at least 2 minutes. The extent of inhibition of aggregation was expressed as the percentage of the rate of aggregation observed in the absence of inhibitor. The IC50 is the dose of a particular compound inhibiting aggregation by 50% relative to a control lacking the compound.
By IC50 is commonly meant the concentration that gives 50% inhibition. With `CCCCS(=O)(=O)N[C@@H](CNC(=O)c1ccc2[nH]c(CCC3CCNCC3)nc2c1)C(=O)O` [2-[2-(4-Piperidinyl)ethyl]benzimidazole-5-carbonyl-[2(S)-butylsulfonylamino]-β-alanine], the IC50 came out at 0.022 µM.

As to `CCCCS(=O)(=O)N[C@@H](CNC(=O)c1ccc2cc(CCC3CCNCC3)sc2c1)C(=O)O` [2-[2-(Piperidin-4-yl)ethyl]benzothiophene-6-N-[3-(2(S)-butylsulfonylaminopropionic acid)]carboxamide], the IC50 worked out at 0.036 µM.

Consider `O=C(N[C@@H](CNC(=O)c1ccc2cc(CCC3CCNCC3)sc2c1)C(=O)O)OCc1ccccc1` [2-[2-(Piperidin-4-yl)ethyl]benzothiophene-6-N-[3-(2(S)-N-carbobenzyloxyaminopropionic acid)]carboxamide], for which the IC50 came out at 0.067 µM.

Take `CCCCS(=O)(=O)N[C@@H](Cc1ccc2oc(CCCC3CCNCC3)cc2c1)C(=O)O` [2(S)-(Butylsulfonylamino)-3-{5-[2'-3-(piperidin-4-ylpropyl)benzofuranyl]}propionic acid]: the IC50 is 0.2 µM.

Take `CCCCS(=O)(=O)N[C@@H](Cc1ccc2oc(C(=O)NCC3CCNCC3)cc2c1)C(=O)O` [2(S)-(Butylsulfonylamino)-3-{5-[2'-(4-piperidinylmethyl)aminocarbonyl]benzofuranyl}propionic acid]: the half-inhibitory concentration (IC50) was determined as 6.6 µM.

On to `O=C(NC[C@H](NS(=O)(=O)c1ccccc1)C(=O)O)c1cc2cc(OCCC3CCNCC3)ccc2[nH]1` [5-[2-(4-Piperidinylethyl)oxy]-2-indolecarbonyl-2(S)-phenylsulfonyl0amino-β-alanine], for which the IC50 came to 0.012 µM.
